Source: the supplement of paper PMC10627819

Assays:
S. aureus Newman [1] = test: Bliss interaction score (quartile over a dose matrix) (fitness difference); higher = more antagonism (negative = synergy)
How it was run: (§1)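 Quartiles summarise the Bliss score over technical, biological and donor/recipient replicates, where the score is observed minus expected fitness under a product model. Expected fitness uses single-drug values inferred from combination data. Fitness is OD595 at entry into stationary phase over the plate's robust no-drug mean, capped at 1.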

S. aureus DSM 20231 [2] = test: as above
How it was run: as §1

B. subtilis 168 = test: as above
How it was run: as §1

S. pneumoniae D39V = test: as above
How it was run: as §1

S. aureus Newman [3] = test: fitness (endpoint OD595 vs no drug) (fraction); higher = more growth
How it was run: (§2)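 Growth medium was TSB, LB Lennox or CY, and plates were kept at 37 °C. Inoculation was at OD595 0.01 in 384-well plates, at 30 µl per well or 55 µl for S. pneumoniae. OD595 was monitored every 30 min for 14 h and background-subtracted using the first reading. Fitness is the optical density on entering stationary phase divided by the robust mean of no-drug controls, with values capped at 1.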

S. aureus DSM 20231 [4] = test: as above
How it was run: as §2

[5] = first compound 0.75 µg/mL, partner 0.125 µg/mL
[6] = first compound 1.5 µg/mL, partner 0.125 µg/mL
[7] = first compound 3 µg/mL, partner 0.0312 µg/mL
[8] = first compound 3 µg/mL, partner 0.0625 µg/mL
[9] = first compound 3 µg/mL, partner 0.125 µg/mL
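Throughout, for Bliss interaction score (quartile over a dose matrix): first quartile when negative (synergy) and third quartile when positive (antagonism).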

## CC(=O)OC[C@H]1O[C@@H]([S-])[C@H](OC(C)=O)[C@@H](OC(C)=O)[C@@H]1OC(C)=O.CCP(CC)CC.[Au+] [Auranofin] + C1=CC(=CC(=C1)Cl)NN=C(C#N)C#N [CCCP]
S. aureus Newman [1]
  Bliss interaction score: 0.0798
S. aureus DSM 20231 [2]
  Bliss interaction score: 0.0194
B. subtilis 168
  Bliss interaction score: 0.0372
S. pneumoniae D39V
  Bliss interaction score: 0.0425

## CC(=O)OC[C@H]1O[C@@H]([S-])[C@H](OC(C)=O)[C@@H](OC(C)=O)[C@@H]1OC(C)=O.CCP(CC)CC.[Au+] [Auranofin] + C/C(=C\C(=O)OCCCCCCCCC(=O)O)C[C@@H]1OC[C@H](C[C@@H]2O[C@H]2[C@@H](C)[C@H](C)O)[C@@H](O)[C@H]1O [Pseudomonic acid]
S. aureus Newman [1]
  Bliss interaction score: 0.0254
S. aureus DSM 20231 [2]
  Bliss interaction score: 0.0133
B. subtilis 168
  Bliss interaction score: 0.0268
S. pneumoniae D39V
  Bliss interaction score: 0.081

## CC(=O)OC[C@H]1O[C@@H]([S-])[C@H](OC(C)=O)[C@@H](OC(C)=O)[C@@H]1OC(C)=O.CCP(CC)CC.[Au+] [Auranofin] + CC1(C)S[C@@H]2[C@H](NC(=O)Cc3ccccc3)C(=O)N2[C@H]1C(=O)O [PenicillinG]
S. aureus Newman [1]
  Bliss interaction score: -0.0443
S. aureus DSM 20231 [2]
  Bliss interaction score: 0.0414
B. subtilis 168
  Bliss interaction score: -0.0513
S. pneumoniae D39V
  Bliss interaction score: 0.0454

## CC(=O)OC[C@H]1O[C@@H]([S-])[C@H](OC(C)=O)[C@@H](OC(C)=O)[C@@H]1OC(C)=O.CCP(CC)CC.[Au+] [Auranofin] + CC1=C(C(=O)O)N2C(=O)[C@@H](NC(=O)[C@H](N)c3ccccc3)[C@H]2SC1 [Cephalexin]
S. aureus Newman [1]
  Bliss interaction score: -0.0291
S. aureus DSM 20231 [2]
  Bliss interaction score: -0.0272
B. subtilis 168
  Bliss interaction score: -0.0587
S. pneumoniae D39V
  Bliss interaction score: -0.101

## CC(=O)OC[C@H]1O[C@@H]([S-])[C@H](OC(C)=O)[C@@H](OC(C)=O)[C@@H]1OC(C)=O.CCP(CC)CC.[Au+] [Auranofin] + CC1=C\[C@@H](O)CC(=O)Cc2nc(co2)C(=O)N2CCC=C2C(=O)O[C@H](C(C)C)[C@H](C)/C=C/C(=O)NC\C=C\1 [Virginiamycin M1]
S. aureus Newman [1]
  Bliss interaction score: -0.0212
S. aureus DSM 20231 [2]
  Bliss interaction score: -0.0753
B. subtilis 168
  Bliss interaction score: -0.0329
S. pneumoniae D39V
  Bliss interaction score: 0.0585

## CC(=O)OC[C@H]1O[C@@H]([S-])[C@H](OC(C)=O)[C@@H](OC(C)=O)[C@@H]1OC(C)=O.CCP(CC)CC.[Au+] [Auranofin] + CC(=O)NC[C@H]1CN(c2ccc(N3CCOCC3)c(F)c2)C(=O)O1 [Linezolid]
S. aureus Newman [1]
  Bliss interaction score: 0.067
S. aureus DSM 20231 [2]
  Bliss interaction score: 0.0191
B. subtilis 168
  Bliss interaction score: -0.0379
S. pneumoniae D39V
  Bliss interaction score: -0.104

## O=C(N[C@H](CO)[C@H](O)c1ccc([N+](=O)[O-])cc1)C(Cl)Cl [Chloramphenicol] + CC(C1CCC(C(O1)OC2C(CC(C(C2O)OC3C(C(C(CO3)(C)O)NC)O)N)N)N)NC [Gentamicin]
S. aureus Newman [3]; first compound 0.75 µg/mL, partner 0.375 µg/mL, main component drawn
  fitness: 0.778
S. aureus Newman [3]; first compound 0.75 µg/mL, partner 0.5 µg/mL, main component drawn
  fitness: 0.868
S. aureus Newman [3]; first compound 0.75 µg/mL, partner 0.75 µg/mL, main component drawn
  fitness: 0.778
S. aureus Newman [3]; first compound 0.75 µg/mL, partner 1 µg/mL, main component drawn
  fitness: 0.974
S. aureus Newman [3]; first compound 0.75 µg/mL, partner 1.5 µg/mL, main component drawn
  fitness: 0.765
S. aureus Newman [3]; first compound 0.75 µg/mL, partner 2 µg/mL, main component drawn
  fitness: ≥ 1
S. aureus Newman [3]; first compound 1.5 µg/mL, partner 0.375 µg/mL, main component drawn
  fitness: 0.507
S. aureus Newman [3]; first compound 1.5 µg/mL, partner 0.5 µg/mL, main component drawn
  fitness: 0.775
S. aureus Newman [3]; first compound 1.5 µg/mL, partner 0.75 µg/mL, main component drawn
  fitness: 0.543
S. aureus Newman [3]; first compound 1.5 µg/mL, partner 1 µg/mL, main component drawn
  fitness: 0.893
S. aureus Newman [3]; first compound 1.5 µg/mL, partner 1.5 µg/mL, main component drawn
  fitness: 0.561
S. aureus Newman [3]; first compound 1.5 µg/mL, partner 2 µg/mL, main component drawn
  fitness: 0.871
S. aureus Newman [3]; first compound 3 µg/mL, partner 0.375 µg/mL, main component drawn
  fitness: 0.208
S. aureus Newman [3]; first compound 3 µg/mL, partner 0.5 µg/mL, main component drawn
  fitness: 0.436
S. aureus Newman [3]; first compound 3 µg/mL, partner 0.75 µg/mL, main component drawn
  fitness: 0.223
S. aureus Newman [3]; first compound 3 µg/mL, partner 1 µg/mL, main component drawn
  fitness: 0.487
S. aureus Newman [3]; first compound 3 µg/mL, partner 1.5 µg/mL, main component drawn
  fitness: 0.231
S. aureus Newman [3]; first compound 3 µg/mL, partner 2 µg/mL, main component drawn
  fitness: 0.512
S. aureus DSM 20231 [2]; main component drawn
  Bliss interaction score: 0.0877
B. subtilis 168; main component drawn
  Bliss interaction score: 0.13
S. pneumoniae D39V; main component drawn
  Bliss interaction score: -0.162

## O=C(N[C@H](CO)[C@H](O)c1ccc([N+](=O)[O-])cc1)C(Cl)Cl [Chloramphenicol] + CCC[C@@H]1C[C@@H](C(=O)N[C@@H]([C@H]2O[C@H](SC)[C@H](O)[C@@H](O)[C@H]2O)[C@H](C)Cl)N(C)C1 [Clindamycin]
S. aureus Newman [3]; first compound 0.75 µg/mL, partner 0.0312 µg/mL
  fitness: 0.539
S. aureus Newman [3]; [5]
  fitness: 0.0906
S. aureus Newman [3]; first compound 1.5 µg/mL, partner 0.0312 µg/mL
  fitness: 0.392
S. aureus Newman [3]; [6]
  fitness: 0.0591
S. aureus Newman [3]; [7]
  fitness: 0.11
S. aureus Newman [3]; [8]
  fitness: 0.0976
S. aureus Newman [3]; [9]
  fitness: 0.0645
S. aureus DSM 20231 [4]; first compound 0.75 µg/mL, partner 0.0625 µg/mL
  fitness: 0.0956
S. aureus DSM 20231 [4]; [5]
  fitness: 0.0527
S. aureus DSM 20231 [4]; [6]
  fitness: 0.0897
S. aureus DSM 20231 [4]; [7]
  fitness: 0.137
S. aureus DSM 20231 [4]; [8]
  fitness: 0.0841
S. aureus DSM 20231 [4]; [9]
  fitness: 0.0677
S. aureus Newman [1]
  Bliss interaction score: -0.0758
S. aureus DSM 20231 [2]
  Bliss interaction score: 0.0541
S. pneumoniae D39V
  Bliss interaction score: 0.155

## O=C(N[C@H](CO)[C@H](O)c1ccc([N+](=O)[O-])cc1)C(Cl)Cl [Chloramphenicol] + CN(C)C(=O)C(CCN1CCC(O)(c2ccc(Cl)cc2)CC1)(c1ccccc1)c1ccccc1 [Loperamide]
S. aureus Newman [1]
  Bliss interaction score: -0.0555
B. subtilis 168
  Bliss interaction score: -0.18
S. pneumoniae D39V
  Bliss interaction score: 0.146

## O=C(N[C@H](CO)[C@H](O)c1ccc([N+](=O)[O-])cc1)C(Cl)Cl [Chloramphenicol] + CO[C@H]1/C=C/O[C@@]2(C)Oc3c(C)c(O)c4c(O)c(c(/C=N/N5CCN(C)CC5)c(O)c4c3C2=O)NC(=O)/C(C)=C\C=C\[C@H](C)[C@H](O)[C@@H](C)[C@@H](O)[C@@H](C)[C@H](OC(C)=O)[C@@H]1C [Rifampicin]
S. aureus Newman [1]
  Bliss interaction score: 0.0185
S. aureus DSM 20231 [2]
  Bliss interaction score: 0.0582
S. pneumoniae D39V
  Bliss interaction score: 0.069

## O=C(N[C@H](CO)[C@H](O)c1ccc([N+](=O)[O-])cc1)C(Cl)Cl [Chloramphenicol] + COc1cc(Cc2cnc(N)nc2N)cc(OC)c1OC [Trimethoprim]
S. aureus DSM 20231 [4]; [5]
  fitness: 0.613
S. aureus DSM 20231 [4]; first compound 0.75 µg/mL, partner 0.25 µg/mL
  fitness: 0.648
S. aureus DSM 20231 [4]; first compound 0.75 µg/mL, partner 0.5 µg/mL
  fitness: 0.48
S. aureus DSM 20231 [4]; first compound 0.75 µg/mL, partner 1 µg/mL
  fitness: 0.0816
S. aureus DSM 20231 [4]; [6]
  fitness: 0.499
S. aureus DSM 20231 [4]; first compound 1.5 µg/mL, partner 0.25 µg/mL
  fitness: 0.492
S. aureus DSM 20231 [4]; first compound 1.5 µg/mL, partner 0.5 µg/mL
  fitness: 0.405
S. aureus DSM 20231 [4]; [9]
  fitness: 0.0821
S. aureus DSM 20231 [4]; first compound 3 µg/mL, partner 0.25 µg/mL
  fitness: 0.0908
S. aureus DSM 20231 [4]; first compound 3 µg/mL, partner 0.5 µg/mL
  fitness: 0.0866
S. aureus DSM 20231 [4]; first compound 3 µg/mL, partner 1 µg/mL
  fitness: 0.0882
S. aureus DSM 20231 [2]
  Bliss interaction score: 0.133
B. subtilis 168
  Bliss interaction score: 0.0616
S. pneumoniae D39V
  Bliss interaction score: -0.081
